Experimental data reported in PubChem BioAssay AID504901 (Southern Research Specialized Biocontainment Screening …, 2011).
Values joined by “and” are separate entries in the source; they are usually repeats but may differ in a detail not shown here. Identical values can stand only once. Active and inactive are the calls of the source. The rule behind the calls is not given here.

How the values were obtained:
[1] = test system: Mycobacterium tuberculosis H37Rv growth inhibition, no glycerol; experiment: Confirmatory growth inhibition assay, Mycobacterium tuberculosis H37Rv, absence of glycerol (AID 504901); conditions: for IC50: measured here: IC50 of growth inhibition
[2] = as above; conditions: Mycobacterium tuberculosis H37Rv growth inhibition, no glycerol; at 50 µM (top of the series)

| Compound | IC90 [1] | IC50 [1] | inhibition [2] |
| --- | --- | --- | --- |
| Cc1nc(SCC(=O)NC2CCCC2)[nH]c(=O)c1C | 13800 nM | 9690 nM | – |
| Cc1ccc(C(=O)N/N=C(/CC(=O)c2cccs2)C(F)(F)F)cc1 | 3580 nM | 2560 nM | – |
| O=c1[nH]c(=S)[nH]c2ccccc12 | – | – | -9.52% (inactive) |
| Nc1c(C(=O)NC2CCCCC2)nsc1C(=O)OCC(=O)NC1CCCCC1 | 6830 nM | 4100 nM | – |
| CC(C)NC(=O)CSc1nc2ccccc2c(=O)[nH]1 | 14600 nM | 9570 nM | – |
| Cc1nc(SCC(=O)N(C)c2ccccc2)[nH]c(=O)c1C | – | – | -3.18% (inactive) |
| CC[N+](C)(CC)CCCCOc1ccc2c(c1)C(=O)c1cc(OCCCC[N+](C)(CC)CC)ccc1-2 | – | 1900 nM | – |
| O=C(CSc1nc2c(c(=O)[nH]1)CCC2)NC1CCCCC1 | < 110 nM | < 70 nM | – |
| Cc1nc(SCC(N)=O)[nH]c(=O)c1C | – | – | -0.93% (inactive) |
| O=C(CSc1ccccn1)NC1CCCCC1 | – | – | 3.21% (inactive) |
| Cc1c[nH]c(=S)[nH]c1=O | – | – | -2.94% (inactive) |
| Cc1ccc(NC(=O)COC(=O)CCc2c[nH]c3ccccc23)cc1[N+](=O)[O-] | 7750 nM | 2730 nM | – |
| COC(=O)c1ccc(CNc2c(N3CCCC3)c(=O)c2=O)cc1 | – | – | -8.74% (inactive) |
| Cc1[nH]c(=S)[nH]c(=O)c1C | – | – | 3.12% (inactive) |
| Cc1cc(=O)[nH]c(SCC(=O)NC2CCCCC2)n1 | – | – | -0.58% (inactive) |
| Cc1nc(SCc2ccccc2Cl)[nH]c(=O)c1C | – | – | -13.7% (inactive) |
| Cc1cc(=O)[nH]c(=S)[nH]1 | – | – | -7.95% (inactive) |
| Cc1cc(Br)ccc1NC(=O)c1cnc(N2CCN(c3ccccn3)CC2)c2ccccc12 | 50000 nM | 3420 nM | – |
| COC(=O)C(Nc1nc(SCC(=O)NC2CCCCC2)nc2ccccc12)c1ccccc1 (stereo not given) | – | – | -3.62% (inactive) |
| CN1CCC(NC(=O)CSc2nc3ccccc3c(=O)[nH]2)CC1 | – | – | -11.8% (inactive) |
| O=C(CSc1nc2ccccc2c(=O)[nH]1)NC1CCCCC1 | 510 nM and 80 nM | – | – |
| CCCc1cc(C(N)=S)ccn1 | 50000 nM | 8840 nM | – |
| COC(=O)C(C)Oc1ccc(Cc2ncc(C(F)(F)F)cc2Cl)cc1 (stereo not given) | 5610 nM | 3950 nM | – |

| Compound | IC90 [1] | IC50 [1] | inhibition [2] |
| --- | --- | --- | --- |
| CN(C(=O)CSc1nc2ccccc2c(=O)[nH]1)C1CCCCC1 | – | – | -7.16% (inactive) |
| O=C(CSc1nc2c(c(=O)[nH]1)CCCC2)NC1CCCCC1 | 160 nM | 90 nM | – |
| COc1cccc(NC(=O)CSc2nc3ccccc3c(=O)[nH]2)c1 | – | – | -14.5% (inactive) |
| COc1cccc(NC(=O)CSc2nc3c(c(=O)[nH]2)CCC3)c1 | – | – | 4.58% (inactive) |
| CCSc1nc2ccccc2c(=O)[nH]1 | – | – | 1.1% (inactive) |
| CC(Sc1nc2ccccc2c(=O)[nH]1)C(=O)NC1CCCCC1 (stereo not given) | – | – | -6.09% (inactive) |
| NC(=O)CSc1nc2ccccc2c(=O)[nH]1 | – | – | -10.9% (inactive) |
| CCOC(=O)CSc1nc(C)c(C)c(=O)[nH]1 | – | – | -7.41% (inactive) |
| CC(C)CNC(=O)CSc1nc2ccccc2c(=O)[nH]1 | 790 nM | 410 nM | – |
| Cn1c(SCC(=O)NC2CCCCC2)nc2ccccc2c1=O | – | – | -9.98% (inactive) |
| NC(=O)c1cnccn1 | – | – | 1.71% (inactive) |
| Cc1ccc(NC(=O)CSc2nc3ccccc3c(=O)[nH]2)cc1Cl | – | – | -3.41% (inactive) |
| O=C(CSc1nccc(=O)[nH]1)NC1CCCCC1 | – | – | -0.32% (inactive) |
| CCC(Sc1nc2ccccc2c(=O)[nH]1)C(=O)Nc1cccc(OC)c1 (stereo not given) | – | – | -3.07% (inactive) |
| COc1ccc(NC(=O)CSc2nc3ccccc3c(=O)[nH]2)cc1 | – | – | -9.6% (inactive) |
| COc1c(N2CCNC(C)C2)c(F)cc2c(=O)c(C(=O)O)cn(C3CC3)c12 (stereo not given) | – | 140 nM | – |
| CC(C)CCNC(=O)CSc1nc2ccccc2c(=O)[nH]1 | 500 nM | < 140 nM | – |
| CC(C)CCNC(=O)CSc1nc2c(c(=O)[nH]1)CCC2 | 1720 nM | 1400 nM | – |
| CCCCNC(=O)CSc1nc2ccccc2c(=O)[nH]1 | 1060 nM | 320 nM | – |
| Cc1cccc(-c2oc3ccc(-c4ccc5c(c4)OCO5)cc3c2C#Cc2cncn2C)c1 | 2960 nM | 2360 nM | – |
| NC[C@H]1O[C@H](O[C@H]2[C@H](O)[C@@H](O[C@H]3O[C@H](CO)[C@@H](O)[C@H](N)[C@H]3O)[C@H](N)C[C@@H]2N)[C@H](O)[C@@H](O)[C@@H]1O | 2470 nM | 2010 nM | – |
| Cc1cccc(/C=C/C(=O)c2ccc([N+](=O)[O-])o2)c1 | 2060 nM | 1360 nM | – |
| CC1CCN(C(=O)C2CCN(c3nnc(-n4cccc4)s3)CC2)CC1 | 6400 nM | 3290 nM | – |

| Compound | IC90 [1] | IC50 [1] | inhibition [2] |
| --- | --- | --- | --- |
| Cc1nc(SCC(=O)NC2CCCCC2)[nH]c(=O)c1C | 3780 nM | 650 nM | – |
| O=C(CSc1ncccn1)NC1CCCCC1 | – | – | -1.46% (inactive) |
| CCSc1nc(C)c(C)c(=O)[nH]1 | – | – | -2.72% (inactive) |
| O=C(CSc1nc2ccccc2c(=O)[nH]1)NCc1ccc(Cl)cc1 | 1470 nM | 1030 nM | – |
| Cc1nc(SCC(=O)NCCC(C)C)[nH]c(=O)c1C | 12800 nM | 8990 nM | – |
| Cc1cc(C)n2nc(N)c(N=Nc3ccccc3)c2n1 | 5960 nM | 4550 nM | – |
| CN(C)C(=O)CSc1nc2ccccc2c(=O)[nH]1 | – | – | -6.71% (inactive) |
| O=C(CSc1nc2ccccc2c(=O)[nH]1)N1CCOCC1 | – | – | 0.57% (inactive) |
| Nc1cc(=O)[nH]c(SCC(=O)NC2CCCCC2)n1 | – | – | -6.39% (inactive) |
| CC(C)N=c1cc2n(-c3ccc(Cl)cc3)c3ccccc3nc-2cc1Nc1ccc(Cl)cc1 | – | > 140 nM | – |
| Cc1[nH]c2ccccc2c1C(=O)COC(=O)c1ccc([N+](=O)[O-])s1 | 27600 nM | 26400 nM | – |
| CO[C@H]1/C=C/O[C@@]2(C)Oc3c(C)c(O)c4c(O)c(c(C=NN5CCN(C)CC5)c(O)c4c3C2=O)NC(=O)/C(C)=C\C=C\[C@H](C)[C@H](O)[C@@H](C)[C@@H](O)[C@@H](C)[C@H](OC(C)=O)[C@@H]1C | – | 10 nM | – |
| CCC(Sc1nc2c(c(=O)[nH]1)CCC2)C(=O)Nc1cccc(OC)c1 (stereo not given) | – | – | 3.19% (inactive) |
| CCOC1OC(=O)C(Cl)=C1Nc1ccccc1C (stereo not given) | 5870 nM | 3110 nM | – |
| Cc1cnc(SCC(=O)NC2CCCCC2)[nH]c1=O | – | – | -9.54% (inactive) |
| CNC(=O)CSc1nc2ccccc2c(=O)[nH]1 | – | – | 11.7% (inactive) |
| CCOc1ccc(-c2cc(C)[n+](CCc3ccc(OC)c(OC)c3)c(-c3ccc(OCC)cc3)c2)cc1 | 1120 nM | 710 nM | – |
| O=C(CSc1nc2ccccc2c(=O)[nH]1)NC1CCCC1 | 500 nM | 330 nM | – |
| CCC(Sc1nc2ccccc2c(=O)[nH]1)C(=O)NC1CCCCC1 (stereo not given) | – | – | -7.27% (inactive) |
| CC1CCN(C(=O)CSc2nc3ccccc3c(=O)[nH]2)CC1 | – | – | -4.55% (inactive) |
| CN[C@@H]1[C@H](O[C@H]2[C@H](O[C@H]3[C@H](O)[C@@H](O)[C@H](N=C(N)N)[C@@H](O)[C@@H]3N=C(N)N)O[C@@H](C)[C@]2(O)C=O)O[C@@H](CO)[C@H](O)[C@H]1O | 220 nM | 150 nM | – |
| O=c1[nH]c(SCc2ccccc2Cl)nc2c1CCCC2 | – | – | -5.59% (inactive) |
